Compound in assay [1]: C=CCn1c(=O)c2cnc(Nc3ccc(N4CCN(C)CC4)cc3)nc2n1-c1cccc(C(C)(C)O)n1 [MK-1775]
The assay is described as follows: surviving fraction relative to DMSO-only wells; higher = less growth inhibition. The settings on record: exposure time: 5 days. In short, it runs like this: (§1)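 Continuous five-day exposure to inhibitors at 0.5, 1, 5, 10, 50, 100, 500 and 1000 nM started 24 hours after log-phase tumour cell lines were seeded at 250–500 cells per well in 384-well plates. Luminescence was read after 10 minutes at room temperature. Viability is given as surviving fraction, meaning CellTiter-Glo luminescence normalised to the median of DMSO-only wells.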

Compound in assay [2]: Cc1ccc(NC(=O)c2ccc(CN3CCN(C)CC3)cc2)cc1Nc1nccc(-c2cccnc2)n1 [IMATINIB]
Described as above. The note with it: exposure time: 5 days. In short, it runs like this: as §1

± gives the standard deviation of the averaged measurements.

HOS BONE: the surviving fraction in assay [1] (0.5 nM) is 1.02 ± 0.017; in assay [1] (1 nM), 1.02 ± 0.011; in assay [1] (5 nM), 1.05 ± 0.039; in assay [1] (10 nM), 1.03 ± 0.027; in assay [1] (50 nM), 1.027 ± 0.0056; in assay [1] (100 nM) it was 0.98 ± 0.028. Further, the surviving fraction in assay [1] (500 nM) was determined as 0.15 ± 0.019; in assay [1] (1000 nM) it was 0.065 ± 0.0027; in assay [2] (0.5 nM), 1.03 ± 0.02; in assay [2] (5 nM) it was 1.04 ± 0.028; in assay [2] (10 nM) it was 1.047 ± 0.0078; in assay [2] (100 nM), 1.06 ± 0.023. The surviving fraction in assay [2] (500 nM) was determined as 1.03 ± 0.037.
As for 143B BONE, the surviving fraction in assay [1] (0.5 nM) was determined as 0.998 ± 0.0057; in assay [1] (1 nM), 1.01 ± 0.033; in assay [1] (5 nM) it was 1.02 ± 0.045; in assay [1] (10 nM), 1.02 ± 0.0028; in assay [1] (50 nM), 1.025 ± 0.0057; in assay [1] (100 nM), 0.993 ± 0.013. The surviving fraction in assay [1] (500 nM) is 0.111 ± 0.011; in assay [1] (1000 nM), 0.067 ± 0.0042; in assay [2] (0.5 nM) it was 1.07 ± 0.022; in assay [2] (1 nM), 1.1 ± 0.03; in assay [2] (10 nM) it was 1.1 ± 0.013; in assay [2] (50 nM), 1.14 ± 0.043. Also, the surviving fraction in assay [2] (500 nM) was determined as 1.15 ± 0.1; in assay [2] (1000 nM) it was 1.14 ± 0.11.
Take CAL72 BONE: the surviving fraction in assay [1] (0.5 nM) is 1.06 ± 0.019; in assay [1] (1 nM) it was 1.08 ± 0.041; in assay [1] (5 nM), 1.07 ± 0.047; in assay [1] (10 nM) it was 1.05 ± 0.023; in assay [1] (50 nM) it was 1.11 ± 0.041; in assay [1] (100 nM), 0.959 ± 0.018. Besides, the surviving fraction amounted to 0.123 ± 0.0076 in assay [1] (500 nM); 0.109 ± 0.0067 in assay [1] (1000 nM); 1.11 ± 0.14 in assay [2] (0.5 nM); 1.09 ± 0.11 in assay [2] (1 nM); 1.12 ± 0.065 in assay [2] (5 nM); 1.07 ± 0.1 in assay [2] (10 nM). Further, the surviving fraction is 1.15 ± 0.2 in assay [2] (50 nM), 1.12 ± 0.14 in assay [2] (500 nM) and 1.14 ± 0.087 in assay [2] (1000 nM).
Consider SUM149.B1*.S BREAST, for which the surviving fraction in assay [1] (0.5 nM) is 1.1 ± 0.035; in assay [1] (1 nM) it was 1.11 ± 0.053; in assay [1] (5 nM), 1.1 ± 0.043; in assay [1] (10 nM) it was 1.13 ± 0.017; in assay [1] (50 nM), 1.07 ± 0.025; in assay [1] (100 nM), 0.892 ± 0.018. For the same test system, the surviving fraction in assay [1] (500 nM) was 0.198 ± 0.01; in assay [1] (1000 nM) it was 0.144 ± 0.0048; in assay [2] (0.5 nM) it was 1.12 ± 0.041; in assay [2] (1 nM), 1.11 ± 0.036; in assay [2] (5 nM), 1.15 ± 0.04; in assay [2] (10 nM) it was 1.19 ± 0.035. Also, the surviving fraction in assay [2] (50 nM) was 1.19 ± 0.039; in assay [2] (100 nM), 1.15 ± 0.038; in assay [2] (500 nM), 1.19 ± 0.051; in assay [2] (1000 nM) it was 1.18 ± 0.061.
With CHLA90 AUTONOMIC GANGLIA, the surviving fraction in assay [1] (0.5 nM) came out at 1.03 ± 0.051; in assay [1] (1 nM) it was 1.06 ± 0.073; in assay [1] (5 nM), 0.981 ± 0.023; in assay [1] (10 nM), 0.963 ± 0.024; in assay [1] (50 nM) it was 0.791 ± 0.011; in assay [1] (100 nM) it was 0.681 ± 0.036. The surviving fraction in assay [1] (500 nM) came to 0.0927 ± 0.0067; in assay [1] (1000 nM) it was 0.076 ± 0.013; in assay [2] (0.5 nM), 1 ± 0.022; in assay [2] (1 nM), 1.02 ± 0.071; in assay [2] (5 nM) it was 0.993 ± 0.063; in assay [2] (10 nM), 0.98 ± 0.12. Also, the results for the surviving fraction in assay [2] (50 nM), in assay [2] (100 nM) and in assay [2] (1000 nM) were 1.12 ± 0.084, 1.02 ± 0.091 and 1.11 ± 0.079, respectively.
With YAMATO SYNOVIAL, the surviving fraction is 1.31 ± 0.14 in assay [1] (0.5 nM); 1.29 ± 0.064 in assay [1] (1 nM); 1.43 ± 0.074 in assay [1] (5 nM); 1.2 ± 0.093 in assay [1] (10 nM); 1.27 ± 0.12 in assay [1] (50 nM); 0.972 ± 0.036 in assay [1] (100 nM). Moreover, the surviving fraction in assay [1] (500 nM) was determined as 0.463 ± 0.031; in assay [1] (1000 nM), 0.424 ± 0.018; in assay [2] (0.5 nM) it was 1.29 ± 0.055; in assay [2] (1 nM), 1.19 ± 0.14; in assay [2] (5 nM), 1.28 ± 0.14; in assay [2] (10 nM) it was 1.26 ± 0.078. For the same test system, the surviving fraction in assay [2] (50 nM) amounted to 1.23 ± 0.054; in assay [2] (100 nM), 1.27 ± 0.15; in assay [2] (500 nM) it was 1.1 ± 0.11; in assay [2] (1000 nM), 1.05 ± 0.073.
Take LM7 BONE: the surviving fraction in assay [1] (0.5 nM) worked out at 0.957 ± 0.1; in assay [1] (1 nM), 0.947 ± 0.065; in assay [1] (5 nM), 0.999 ± 0.12; in assay [1] (10 nM), 0.982 ± 0.15; in assay [1] (50 nM), 0.751 ± 0.013; in assay [1] (100 nM), 0.506 ± 0.032. Further, the surviving fraction in assay [1] (500 nM) came to 0.146 ± 0.016; in assay [1] (1000 nM), 0.0563 ± 0.0015; in assay [2] (10 nM), 1.11 ± 0.082; in assay [2] (50 nM), 1.19 ± 0.074; in assay [2] (100 nM), 1.17 ± 0.063; in assay [2] (500 nM), 1.04 ± 0.016. In addition, in assay [2] (1000 nM), the surviving fraction was 0.959 ± 0.11.
In the case of HCT15 LARGE INTESTINE, the surviving fraction in assay [1] (0.5 nM) came to 1.033 ± 0.0098; in assay [1] (1 nM), 1.02 ± 0.032; in assay [1] (5 nM) it was 1 ± 0.037; in assay [1] (10 nM) it was 1.02 ± 0.035; in assay [1] (50 nM), 1.05 ± 0.037; in assay [1] (100 nM) it was 1 ± 0.05. Also, the surviving fraction in assay [1] (500 nM) was 0.521 ± 0.087; in assay [1] (1000 nM), 0.121 ± 0.0021; in assay [2] (0.5 nM), 1.13 ± 0.027; in assay [2] (1 nM) it was 1.1 ± 0.035; in assay [2] (5 nM) it was 1.12 ± 0.024; in assay [2] (10 nM), 1.12 ± 0.038. Further, the surviving fraction in assay [2] (50 nM) turned out to be 1.15 ± 0.08; in assay [2] (100 nM) it was 1.119 ± 0.011; in assay [2] (500 nM), 1.18 ± 0.054; in assay [2] (1000 nM), 1.14 ± 0.046.
Regarding SG27 HEADNECK, the surviving fraction in assay [1] (0.5 nM) was 1.04 ± 0.046; in assay [1] (1 nM) it was 1.04 ± 0.11; in assay [1] (5 nM), 1.08 ± 0.068; in assay [1] (10 nM), 1.03 ± 0.11; in assay [1] (50 nM), 0.969 ± 0.12; in assay [1] (100 nM), 1.01 ± 0.14. Moreover, the surviving fraction was determined as 0.853 ± 0.1 in assay [1] (500 nM); 0.896 ± 0.061 in assay [1] (1000 nM); 1.02 ± 0.16 in assay [2] (5 nM); 1.13 ± 0.088 in assay [2] (10 nM); 1.01 ± 0.079 in assay [2] (50 nM); 1.17 ± 0.21 in assay [2] (100 nM). In addition, the surviving fraction in assay [2] (500 nM) was found to be 1.09 ± 0.18; in assay [2] (1000 nM) it was 1.14 ± 0.068.

Values taken from the supplement of paper PMC6045584.
